Test results as given in article PMC9558223, “Staphylococcus aureus is able to generate resistance to novel lipoglycopeptide antibiotic gausemycin A” (Frontiers in Microbiology, 2022).
Converted amounts (≈) assume the structure as drawn. Like-named read-outs stand apart in the source and are kept apart here. Where no end group is shown, it is not given here.

Key:
Assay type in all cases: cell-based, Staphylococcus aureus
[1] = tested on: S. aureus 5812R; assay: microbe, parasite or virus in culture; details: for MIC: 24 h; for Cross-resistance of S. aureus 5812R: susceptibility testing of gausemycin A-resistant strain; for Change of MIC / resistance of S. aureus 5812R compared to parent strain S. aureus FDA209P: ratio of MIC for 5812R and FDA209P
Procedure: (§1) Minimal inhibitory concentration (MIC) was determined as previously described in Fuchs et al. ([2000]), following the Clinical and Laboratory Standards Institute (CLSI) guidelines for broth microdilution MIC assay. The bacteria were incubated in a 96-well microtiter plate (Eppendorf, Germany) containing 90 μL of inoculum prepared in growth media at 10^6 CFU/ml with 10 μL of twofold dilutions of the antibiotics. The results were evaluated after 24 h of cultivation at 37 °C. The bacterial growth was assessed by scanning the absorbance data at 600 nm obtained by spectrophotometer (Multiscan GO, Thermo Fisher Scientific, US).

[2] = tested on: S. aureus FDA209P; assay: microbe, parasite or virus in culture; details: broth microdilution (CLSI), 10^6 CFU/ml, 24 h, 37 °C, absorbance at 600 nm
Procedure: as §1

[3] = tested on: S. aureus 5812R; assay: microbe, parasite or virus in culture; details: 24 h; for MIC: Staphylococcus aureus, 5812R, read-out: MIC alone
Procedure: The effect of gausemycin A in combination with other antibiotics was evaluated using the checkerboard technique with modifications (Nwabor et al., [2021]). Briefly, 80 μL of diluted bacterial suspension (10^6 CFU/mL) was added to wells containing 10 μL of sub-inhibitory concentrations of gausemycin A and 10 μL of sub-inhibitory concentrations of conventional antibiotics. The plates were incubated for 24 h at 37°C. The effects of the antimicrobial combination were defined according to the fractional inhibitory concentration index (FICI). The ΣFICs were calculated as follows:
where FIC A is the MIC of drug A in the combination/MIC of drug A alone; and FIC B is the MIC of drug B in the combination/MIC of drug B alone. The result was interpreted as FIC ≤ 0.5 = Synergism, FIC > 0.5 to 1 = additivity, FIC >1 to 2 = indifference, and FIC >2 antagonism.

[4] = tested on: S. aureus FDA209P; assay: Serial passaging in increasing concentrations of antimicrobials; details: for The highest concentration of antibiotic allowing growth: Mueller-Hinton II broth (CaCl2 50 mg/L), 37 °C, 24 h
Procedure: Gausemycin A-resistant variant was obtained by serial passaging as described previously (Pollard et al., [2012]). Isolated colonies of S. aureus FDA209P were inoculated into Mueller-Hinton II broth (CaCl2 50 mg/L) containing twofold dilutions of gausemycin A. The cultures were incubated at 37 °C with aeration for 24 h. After incubation, bacterial cells growing at the highest concentration of gausemycin A (below the MIC) were harvested and used for the next passage. The process was repeated for 20 passages. The dynamic of the developing resistance to gausemycin A was evaluated in comparison with daptomycin and ramoplanin. The experiments were performed in two independent series on separate days with three technical replicates each.

[5] = Staphylococcus aureus, read-out: MIC
[6] = S. aureus 5812R, broth microdilution (CLSI), 10^6 CFU/ml, 37 °C, absorbance at 600 nm

With `CC1(C)S[C@@H]2[C@H](NC(=O)[C@H](N)c3ccccc3)C(=O)N2[C@H]1C(=O)O` [Ampicillin] the MIC ([1]; Staphylococcus aureus, 5812R) was 1.25 µg/mL (≈ 3.58 µM), the MIC [2, 5] was 0.16 µg/mL (≈ 0.458 µM) and the “MIC of Amp in combination” value ([3]; S. aureus 5812R, combination Amp + GauA, checkerboard, 37 °C) was 0.63 µg/mL. It also gave an MIC [3] of 1.25 µg/mL.
`Cc1nnc(SCC2=C(C(=O)O)N3C(=O)[C@@H](NC(=O)Cn4cnnn4)[C@H]3SC2)s1` [Cefazolin] was tested, and the MIC ([1]; Staphylococcus aureus, 5812R) was 0.4 µg/mL (≈ 0.88 µM), the “Cross-resistance of S. aureus 5812R” value [1] was “cross-resistance” and the MIC [2, 5] was 0.2 µg/mL (≈ 0.44 µM).
With `O=C(O)c1cn(C2CC2)c2cc(N3CCNCC3)c(F)cc2c1=O` [Ciprofloxacin] the “MIC of Cip in combination” value ([3]; S. aureus 5812R, combination Cip+ GauA, checkerboard, 37 °C) was 0.18 µg/mL.
`CNC(C)C1CCC(N)C(OC2C(N)CC(N)C(OC3OCC(C)(O)C(NC)C3O)C2O)O1` (centres unmarked) [Gentamicin] was tested, and the MIC ([1]; Staphylococcus aureus, 5812R) was 1.56 µg/mL (≈ 3.27 µM), the “Change of MIC / resistance of S. aureus 5812R compared to parent strain S. aureus FDA209P” value [1] was 7.8 fold and the “Cross-resistance of S. aureus 5812R” value [1] was “cross-resistance”. For the same compound, the MIC [2, 5] was 0.2 µg/mL (≈ 0.419 µM), the “MIC of Gen in combination” value ([3]; S. aureus 5812R, combination Gen+ GauA, checkerboard, 37 °C) was 0.75 µg/mL and the MIC [3] was 1.56 µg/mL.
With `CN(C)[C@@H]1C(O)=C(C(N)=O)C(=O)[C@@]2(O)C(O)=C3C(=O)c4c(O)cccc4[C@@](C)(O)[C@H]3C[C@@H]12` [Tetracycline] the MIC ([1]; Staphylococcus aureus, 5812R) was 0.94 µg/mL (≈ 2.12 µM), the “Cross-resistance of S. aureus 5812R” value [1] was “cross-resistance” and the MIC [2, 5] was 0.47 µg/mL (≈ 1.06 µM).
For `CN[C@H](CC(C)C)C(=O)N[C@H]1C(=O)N[C@@H](CC(N)=O)C(=O)N[C@H]2C(=O)N[C@H]3C(=O)N[C@H](C(=O)N[C@H](C(=O)O)c4cc(O)cc(O)c4-c4cc3ccc4O)[C@H](O)c3ccc(c(Cl)c3)Oc3cc2cc(c3O[C@@H]2O[C@H](CO)[C@@H](O)[C@H](O)[C@H]2O[C@H]2C[C@](C)(N)[C@H](O)[C@H](C)O2)Oc2ccc(cc2Cl)[C@H]1O` [Vancomycin], the MIC [1, 6] was 0.78 µg/mL (≈ 0.538 µM), the “Change of MIC / resistance of S. aureus 5812R compared to parent strain S. aureus FDA209P” value [1] was “did not differ” and the “Cross-resistance of S. aureus 5812R” value [1] was “absent”. For the same compound, the MIC [2] was 0.78 µg/mL (≈ 0.538 µM).
With “Nisin (ITSISLCTPGCKTGALMGCNMKTATCHCSIHVSK; not fully specified (some residues, bridges); cysteine pairing not given here; UniProt P13068 24-57, looked up)” the MIC [1, 6] was 7.8 µg/mL, the “Change of MIC / resistance of S. aureus 5812R compared to parent strain S. aureus FDA209P” value [1] was “did not differ” and the “Cross-resistance of S. aureus 5812R” value [1] was “absent”. It also gave an MIC [2] of 7.8 µg/mL.
For Ramoplanin, the “The highest concentration of antibiotic allowing growth” value (“The highest concentration” below) ([4]; passage 1) was 3.12 µg/mL, the “The highest concentration” value ([4]; passage 2) was 6.25 µg/mL and the “The highest concentration” value ([4]; passage 3) was 6.25 µg/mL. The “The highest concentration” value ([4]; passage 4) was 12.5 µg/mL, the “The highest concentration” value ([4]; passage 5) was 50 µg/mL and the “The highest concentration” value ([4]; passage 6) was 50 µg/mL. The “The highest concentration” value ([4]; passage 7) was 50 µg/mL, the “The highest concentration” value ([4]; passage 8) was 100 µg/mL and the “The highest concentration” value ([4]; passage 9) was 100 µg/mL. The “The highest concentration” value ([4]; passage 10) was 100 µg/mL, the “The highest concentration” value ([4]; passage 11) was over 100 µg/mL and the “The highest concentration” value ([4]; passage 12) was over 100 µg/mL. For the same compound, the “The highest concentration” value ([4]; passage 13) was over 100 µg/mL, the “The highest concentration” value ([4]; passage 14) was over 100 µg/mL and the “The highest concentration” value ([4]; passage 15) was over 100 µg/mL. For the same compound, the “The highest concentration” value ([4]; passage 16) was over 100 µg/mL, the “The highest concentration” value ([4]; passage 17) was over 100 µg/mL and the “The highest concentration” value ([4]; passage 18) was over 100 µg/mL. For the same compound, the “The highest concentration” value ([4]; passage 19) was over 100 µg/mL, the “The highest concentration” value ([4]; passage 20) was over 100 µg/mL and the “Number of passages within which resistance was formed” value ([4]; serial passages with sub-inhibitory concentrations) was at most 10 passages. For the same compound, the MIC [1, 6] was 3.12 µg/mL, the “Change of MIC / resistance of S. aureus 5812R compared to parent strain S. aureus FDA209P” value [1] was “did not differ” and the “Cross-resistance of S. aureus 5812R” value [1] was “absent”. For the same compound, the MIC [2] was 3.12 µg/mL.
